Laboratory results as given in US4839358A, “Alpha-mercaptomethyl-benzene propanamides, pharmaceutical compositions and use” (Roussel Uclaf, priority 1987, dated 1989).

Legend:
[1] = Analgesic activity: Stretching Caused by Acetic Acid in Mice; format: in vivo; settings: Mus musculus, 0.5 h; oral, half-an-hour before 1% acetic acid 10 ml/kg intraperitoneal; 15 minutes observation; read-out: AD50 (active dose which enabled a reduction of 50% of the number of stretchings as compared with control animals)
Description: The test used was based on the fact reported by R. KOSTER et al [Fed. Proc. (1959), Vol. 18, p. 412] in which the intraperitoneal injection of acetic acid caused in mice repeated stretching and twisting movements which can persist for more than 6 hours. The analgesics prevent or diminish this syndrome which can be considered as the exteriorization of a diffuse abdominal pain. A 1% solution of acetic acid in water was used, administered at a rate of 10 ml/kg. The product studied was administered by oral route half-an-hour before injection of the acetic acid, the mice being without food for a minimum 6 hours. The stretchings were observed and counted for each mouse for an observation period of 15 minutes. The results were expressed as the AD50, that is to say, the active dose which enabled a reduction of 50% of the number of stretchings as compared with control animals. The AD50 found for the compound of Example 2 was 80 mg/kg.

[2] = Test of Anti-depressive Activity (duration of immobility, forced swimming); format: in vivo, Sprague Dawley rats; settings: 20 mg/kg × 3, oral 24, 5 and 1 hour before test
Description: The tests were carried out on groups of 5 Sprague Dawley rats and the inexperienced animals were placed for 15 minutes in a vertical perspex cylinder (diameter: 18 cm, height: 40 cm) containing water at 25° C. to a height of 15 cm (initial swimming test). They were then dried for 15 minutes in an enclosure heated to 32° C. 24 hours later, they were replaced in the cylinder filled with water and the total duration of immobility was measured for 5 minutes. The compound was administered orally successively 24, 5 and 1 hour before the test. The first administration took place immediately after the initial swimming test, just before replacing the animals in their breeding box. The average of the groups treated were compared with those of the control group by the Dunnett test.

[3] = target: T1, Enkephalinase (Rattus norvegicus, UniProt P07861); test: Determination of the Inhibiting Effect of Enkephalinase (hydrolysis of succinyl-Ala-Ala-Phe-amino-methylcoumarine, fluorescence); format: biochemical; settings: rat renal membrane; substrate 40 μM; pH 7.5; 37° C., 30 minutes; read-out: IC50 (concentration which inhibits the hydrolysis of the substrate by 50%)
T1 construct: from tissue; host or cells: rat kidney membranes (15,000 g particulate fraction, solubilised with octyl beta-D-glucopyranoside, 100,000 g supernatant)
T1 sequence (P07861 1-750): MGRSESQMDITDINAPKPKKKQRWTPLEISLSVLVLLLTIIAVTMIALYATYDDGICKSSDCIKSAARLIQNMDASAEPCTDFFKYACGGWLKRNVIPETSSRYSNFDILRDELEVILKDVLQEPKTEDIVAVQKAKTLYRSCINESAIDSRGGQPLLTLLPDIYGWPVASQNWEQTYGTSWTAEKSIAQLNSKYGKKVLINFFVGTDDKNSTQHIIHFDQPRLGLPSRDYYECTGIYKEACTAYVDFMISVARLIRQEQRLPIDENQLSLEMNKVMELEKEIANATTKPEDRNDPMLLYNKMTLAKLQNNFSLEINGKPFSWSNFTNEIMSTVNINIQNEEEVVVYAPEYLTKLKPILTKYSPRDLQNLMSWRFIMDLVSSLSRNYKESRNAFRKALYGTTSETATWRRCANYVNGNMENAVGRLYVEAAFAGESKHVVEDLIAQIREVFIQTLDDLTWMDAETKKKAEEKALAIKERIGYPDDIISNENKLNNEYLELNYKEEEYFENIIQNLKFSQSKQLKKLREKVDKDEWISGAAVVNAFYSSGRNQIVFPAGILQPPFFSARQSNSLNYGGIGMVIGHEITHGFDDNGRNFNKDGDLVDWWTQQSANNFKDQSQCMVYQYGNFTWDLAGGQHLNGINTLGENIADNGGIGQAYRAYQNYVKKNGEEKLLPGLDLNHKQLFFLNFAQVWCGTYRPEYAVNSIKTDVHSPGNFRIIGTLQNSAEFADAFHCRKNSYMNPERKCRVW
Description: The activity of enkephalinase was determined starting with a piece of renal membrane of a rat. The kidneys were removed on ice and homogenized in HEPES 0.05M buffer pH 7.5 containing magnesium chloride (50 times the volume). After a first centrifuging at 1,500 g, the particular fraction was obtained after centrifuging at 15,000 g for 20 minutes. The residue was then washed and suspended in HEPES buffer and kept at -20 C. A part of this membrane preparation was placed in the presence of octyl β-D-glucopyranoside (50 mM in final centrifuging) for 15 minutes 15 4° C. After centrifuging at 100,000 g for one hour, the supernatant was removed and frozen by aliquots at -20° C. The concentration in proteins was determined by the method with Comassie blue.
An aliquot of the protein fraction so prepared was pre-incubated at 25° C. for 10 minutes in HEPES 0.05M buffer pH 7.5 or in the presence of the test product. The substrate added was a non-natural enkephaline of the formula succinyl-Ala-Ala-Phe-amino-methylcoumarine (reference 1) (40 μM in final concentration): the incubation was continued at 37° C. for 30 minutes. The reaction was stopped by heating to 95° C. for 5 minutes and each incubate was centrifuged. A solution of aminopeptidase M (4 μM in final concentration) and of thiorphan (reference 2) (10^-5 M) was added to the supernatant and the mixture was taken to 37° C. for one hour. The reaction was stopped as previously described and the fluorescence of the 7-aminomethylcoumarineso produced was determined. The effect of the products under test was detemined by calculating the IC50 as the concentration which inhibits the hydrolysis of the substrate by 50%.

IC50 [3] [nM] | Compound | ED50 [1] [mg/kg] | Duration of immobility ([2]; 5 minutes measured, control 232 ± 7) [s] | Duration of immobility, % variation ([2]; versus control group) [%]
220 | O=C(NN1CCOCC1)C(CS)Cc1ccccc1 (stereo not drawn) [Example 2, α-mercaptomethyl-N-(4-morpholinyl)-benzene propanamide] | 80 | 138 ± 20 | -41
390 | O=C(NN1CCCCCC1)C(CS)Cc1ccccc1 (stereo not drawn) [Example 8, N-(hexahydro-1H-azepinyl)-α-(mercaptomethyl)-benzene propanamide] |  |  | 
71 | O=C(NN1CCCC1)C(CS)Cc1ccccc1 (stereo not drawn) [Example 10, α-mercaptomethyl-N-(1-pyrrolidinyl)-benzene propanamide] |  |  | 
350 | O=C(NN1CCSCC1)C(CS)Cc1ccccc1 (stereo not drawn) [Example 12, α-mercaptomethyl-N-(tetrahydro-2H-1,4,-thiazin-4-yl)-benzene propanamide] |  |  | 
